Values quoted from earlier work in patent US6586576B2, “Preparation method of azithromycin hydrates” (Teva Pharmaceutical Industries LTD, priority 2000, dated 2003).
Read-outs that look alike come from different tables or passages of the source. Each block holds one compound with its values, some of them ahead of it.

Assays:
[1] = crystal/hydrate form, per EP 298 650 and CN 1,093,370

SMILES: CC[C@H]1OC(=O)[C@H](C)[C@@H](O[C@H]2C[C@@](C)(OC)[C@@H](O)[C@H](C)O2)[C@H](C)[C@@H](O[C@@H]2O[C@H](C)C[C@H](N(C)C)[C@H]2O)[C@](C)(O)C[C@@H](C)CN(C)[C@H](C)[C@@H](O)[C@]1(C)O [azithromycin dihydrate]
- hygroscopic nature ([1]; dihydrate): less hygroscopic than the previously known azithromycin monohydrate

- stability under acidic conditions: not stable
SMILES: CC[C@H]1OC(=O)C(C)C(OC2CC(C)(OC)C(O)C(C)O2)C(C)C(OC2OC(C)CC(N(C)C)C2O)C(C)(O)CC(C)CN(C)C(C)C(O)C1(C)O (stereo partly drawn) [azithromycin, 9-deoxo-9a-aza-9a-methyl-9a-homoerythromycin A]

- hygroscopic nature ([1]; monohydrate): hygroscopic
SMILES: CC[C@H]1OC(=O)[C@H](C)[C@@H](O[C@H]2C[C@@](C)(OC)[C@@H](O)[C@H](C)O2)[C@H](C)[C@@H](O[C@@H]2O[C@H](C)C[C@H](N(C)C)[C@H]2O)[C@](C)(O)C[C@@H](C)CN(C)[C@H](C)[C@@H](O)[C@]1(C)O [azithromycin monohydrate]
